# Measured values reported in ChEMBL document CHEMBL1201862, “PubChem BioAssay data set” (2004).
#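 Growth conditions: 96-well plates. Treatment: test compound, 48 hours, 5 concentrations. Analysis: linear interpolation between bracketing concentrations; unreached endpoints set to highest concentration. GI50: concentration for 50% inhibition of growth.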 Activity calls are given as the source filed them. Rule as the data show it: active = GI50 up to about 1.1 µM and inactive = higher.
# Legend:
# Test in all cases: DTP human tumour cell line panel, 48 h
# [1] = tested on: A549
# [2] = tested on: NCI-H460
# [3] = tested on: NCI-H522
# [4] = tested on: DMS-114
# [5] = tested on: DLD-1
# [6] = tested on: ACHN
# [7] = tested on: LXFL 529
# [8] = tested on: CCRF-CEM
# [9] = tested on: SF-268
# [10] = tested on: SW-620
# [11] = tested on: UO-31
# [12] = tested on: 786-0
# [13] = tested on: HCT-15
# [14] = tested on: IGROV-1
# [15] = tested on: A498
# [16] = tested on: SK-MEL-28
# [17] = tested on: HOP-62
# [18] = tested on: EKVX
# [19] = tested on: K562
# [20] = tested on: OVCAR-8
# [21] = tested on: LOX IMVI
# [22] = tested on: MOLT-4
# [23] = tested on: HCT-116
# [24] = tested on: XF498
# [25] = tested on: SK-OV-3
# [26] = tested on: U-251
# [27] = tested on: NCI-H23
# [28] = tested on: M14
# [29] = tested on: RXF 393
# [30] = tested on: M19-MEL
# [31] = tested on: SK-MEL-5
# [32] = tested on: KM-20L2
# [33] = tested on: SN12C
# [34] = tested on: HOP-18
# [35] = tested on: COLO 205
# [36] = tested on: DMS-273
# [37] = tested on: TK-10
# [38] = tested on: HOP-92
# [39] = tested on: RPMI-8226
# [40] = tested on: UACC-62
# [41] = tested on: HL-60
# [42] = tested on: SF-539
# [43] = tested on: NCI/ADR-RES
# [44] = tested on: SNB-19
# [45] = tested on: UACC-257
# [46] = tested on: Malme-3M
# [47] = tested on: NCI-H226
# [48] = tested on: OVCAR-5
# [49] = tested on: KM12
# [50] = tested on: OVCAR-4
# [51] = tested on: SNB-75
# [52] = tested on: HT-29
# [53] = tested on: MCF7
# [54] = tested on: SNB-78
# [55] = tested on: OVCAR-3
# [56] = tested on: SF-295
# [57] = tested on: SK-MEL-2
# [58] = tested on: HCC 2998
# [59] = tested on: CAKI-1
# [60] = tested on: SR
compound,measurement,setting,value
O=C(NCCOCCO)c1ccc(O)cc1,GI50,[1],> 100 µM (inactive)
same,GI50,[2],> 100 µM (inactive)
same,GI50,[3],> 100 µM (inactive)
same,GI50,[4],> 100 µM (inactive)
same,GI50,[5],> 100 µM (inactive)
same,GI50,[6],> 100 µM (inactive)
same,GI50,[7],> 100 µM (inactive)
same,GI50,[8],> 100 µM (inactive)
same,GI50,[9],> 100 µM (inactive)
same,GI50,[10],> 100 µM (inactive)
same,GI50,[11],> 100 µM (inactive)
same,GI50,[12],> 100 µM (inactive)
same,GI50,[13],> 100 µM
same,GI50,[14],> 100 µM (inactive)
same,GI50,[15],> 100 µM (inactive)
same,GI50,[16],> 100 µM (inactive)
same,GI50,[17],> 100 µM (inactive)
same,GI50,[18],20.4 µM (inactive)
same,GI50,[19],> 100 µM (inactive)
same,GI50,[20],> 100 µM (inactive)
same,GI50,[21],> 100 µM (inactive)
same,GI50,[22],> 100 µM (inactive)
same,GI50,[23],> 100 µM (inactive)
same,GI50,[24],55 µM (inactive)
same,GI50,[25],> 100 µM (inactive)
same,GI50,[26],> 100 µM (inactive)
same,GI50,[27],> 100 µM (inactive)
same,GI50,[28],> 100 µM (inactive)
same,GI50,[29],> 100 µM (inactive)
same,GI50,[30],> 100 µM (inactive)
same,GI50,[31],> 100 µM (inactive)
same,GI50,[32],> 100 µM (inactive)
same,GI50,[33],> 100 µM (inactive)
same,GI50,[34],> 100 µM (inactive)
same,GI50,[35],> 100 µM (inactive)
same,GI50,[36],> 100 µM (inactive)
same,GI50,[37],> 100 µM (inactive)
same,GI50,[38],> 100 µM (inactive)
same,GI50,[39],> 100 µM (inactive)
same,GI50,[40],> 100 µM (inactive)
same,GI50,[41],> 100 µM (inactive)
same,GI50,[42],> 100 µM (inactive)
C[C@H](CN1CC(=O)NC(=O)C1)N1CC(=O)NC(=O)C1,GI50,[1],> 70.5 µM (inactive)
same,GI50,[2],9.31 µM (inactive)
same,GI50,[43],> 100 µM (inactive)
same,GI50,[44],50.4 µM (inactive)
same,GI50,[3],20.8 µM (inactive)
same,GI50,[4],0.18 µM (active)
same,GI50,[5],> 86.5 µM (inactive)
same,GI50,[45],> 100 µM (inactive)
same,GI50,[8],34.3 µM (inactive)
same,GI50,[9],> 96.2 µM (inactive)
same,GI50,[10],> 47.3 µM (inactive)
same,GI50,[46],42.9 µM (inactive)
same,GI50,[11],20 µM (inactive)
same,GI50,[13],> 76.2 µM
same,GI50,[14],> 100 µM (inactive)
same,GI50,[47],39 µM (inactive)
same,GI50,[15],> 64.6 µM (inactive)
same,GI50,[16],> 100 µM (inactive)
same,GI50,[17],> 65 µM (inactive)
same,GI50,[18],57 µM (inactive)
same,GI50,[19],> 84.3 µM (inactive)
same,GI50,[20],> 100 µM (inactive)
same,GI50,[21],> 100 µM (inactive)
same,GI50,[22],9.89 µM (inactive)
same,GI50,[23],82.4 µM (inactive)
same,GI50,[48],> 100 µM (inactive)
same,GI50,[49],> 100 µM (inactive)
same,GI50,[50],> 100 µM (inactive)
same,GI50,[24],> 100 µM (inactive)
same,GI50,[25],> 100 µM (inactive)
same,GI50,[51],> 100 µM (inactive)
same,GI50,[26],58.2 µM (inactive)
same,GI50,[52],> 100 µM (inactive)
same,GI50,[27],> 86.1 µM (inactive)
same,GI50,[29],> 100 µM (inactive)
same,GI50,[30],> 100 µM (inactive)
same,GI50,[31],> 100 µM (inactive)
same,GI50,[53],44.2 µM (inactive)
same,GI50,[32],> 87.7 µM (inactive)
same,GI50,[54],> 100 µM (inactive)
same,GI50,[33],> 85.3 µM (inactive)
same,GI50,[34],> 100 µM (inactive)
same,GI50,[55],> 100 µM (inactive)
same,GI50,[35],11.7 µM (inactive)
same,GI50,[36],> 100 µM (inactive)
same,GI50,[56],> 100 µM (inactive)
same,GI50,[57],> 10 µM (inactive)
same,GI50,[38],> 100 µM (inactive)
same,GI50,[39],> 53.2 µM (inactive)
same,GI50,[40],> 100 µM (inactive)
same,GI50,[58],22.7 µM (inactive)
same,GI50,[42],> 100 µM (inactive)
same,GI50,[59],> 100 µM (inactive)
COc1ccc(C2C3=C(COC3=O)Oc3cc4c(cc32)OCO4)cc1 (centres undefined),GI50,[1],9.18 µM (inactive)
same,GI50,[2],10.8 µM (inactive)
same,GI50,[44],61.4 µM (inactive)
same,GI50,[4],4.3 µM (inactive)
same,GI50,[5],15.4 µM (inactive)
same,GI50,[45],39.3 µM (inactive)
same,GI50,[6],21.1 µM (inactive)
same,GI50,[8],6.46 µM (inactive)
same,GI50,[10],6.21 µM (inactive)
same,GI50,[46],56 µM (inactive)
same,GI50,[11],16.7 µM (inactive)
same,GI50,[12],27.2 µM (inactive)
same,GI50,[13],6.27 µM
same,GI50,[14],32.2 µM (inactive)
same,GI50,[16],47.9 µM (inactive)
same,GI50,[17],8.39 µM (inactive)
same,GI50,[18],50.5 µM (inactive)
same,GI50,[19],3.85 µM (inactive)
same,GI50,[20],36.2 µM (inactive)
same,GI50,[21],27.4 µM (inactive)
same,GI50,[22],6.71 µM (inactive)
same,GI50,[23],13.2 µM (inactive)
same,GI50,[50],27.3 µM (inactive)
same,GI50,[24],7.18 µM (inactive)
same,GI50,[25],> 100 µM (inactive)
same,GI50,[51],8.3 µM (inactive)
same,GI50,[26],23.9 µM (inactive)
same,GI50,[52],3.81 µM (inactive)
same,GI50,[27],20.1 µM (inactive)
same,GI50,[28],17.7 µM (inactive)
same,GI50,[29],19.1 µM (inactive)
same,GI50,[30],15.5 µM (inactive)
same,GI50,[31],11.7 µM (inactive)
same,GI50,[32],11.9 µM (inactive)
same,GI50,[54],16.6 µM (inactive)
same,GI50,[33],27.9 µM (inactive)
same,GI50,[34],18.6 µM (inactive)
same,GI50,[55],7.18 µM (inactive)
same,GI50,[35],13 µM (inactive)
same,GI50,[36],5.26 µM (inactive)
same,GI50,[56],5.15 µM (inactive)
same,GI50,[37],29.3 µM (inactive)
same,GI50,[57],47.1 µM (inactive)
same,GI50,[38],14.9 µM (inactive)
same,GI50,[39],12.7 µM (inactive)
same,GI50,[40],10.6 µM (inactive)
same,GI50,[41],3.97 µM (inactive)
same,GI50,[42],19.4 µM (inactive)
same,GI50,[59],7.53 µM (inactive)
CN(C)CCN(C)C(=O)C1CCCN1C(=O)OCc1ccccc1 (centres undefined),GI50,[1],> 100 µM (inactive)
same,GI50,[2],> 100 µM (inactive)
same,GI50,[44],> 100 µM (inactive)
same,GI50,[3],6.71 µM (inactive)
same,GI50,[4],> 100 µM (inactive)
same,GI50,[5],71.3 µM (inactive)
same,GI50,[45],> 100 µM (inactive)
same,GI50,[6],> 100 µM (inactive)
same,GI50,[7],> 100 µM (inactive)
same,GI50,[8],19.4 µM (inactive)
same,GI50,[9],> 100 µM (inactive)
same,GI50,[10],> 100 µM (inactive)
same,GI50,[46],> 100 µM (inactive)
same,GI50,[11],> 100 µM (inactive)
same,GI50,[12],> 100 µM (inactive)
same,GI50,[13],> 100 µM
same,GI50,[14],> 100 µM (inactive)
same,GI50,[47],> 100 µM (inactive)
same,GI50,[15],> 100 µM (inactive)
same,GI50,[16],> 100 µM (inactive)
same,GI50,[17],> 100 µM (inactive)
same,GI50,[18],> 100 µM (inactive)
same,GI50,[19],61.1 µM (inactive)
same,GI50,[20],> 100 µM (inactive)
same,GI50,[21],> 100 µM (inactive)
same,GI50,[22],> 100 µM (inactive)
same,GI50,[23],> 100 µM (inactive)
same,GI50,[48],> 100 µM (inactive)
same,GI50,[50],> 100 µM (inactive)
same,GI50,[24],> 100 µM (inactive)
same,GI50,[25],> 100 µM (inactive)
same,GI50,[51],> 100 µM (inactive)
same,GI50,[26],> 100 µM (inactive)
same,GI50,[60],38.6 µM (inactive)
same,GI50,[52],> 100 µM (inactive)
same,GI50,[27],> 100 µM (inactive)
same,GI50,[28],> 100 µM (inactive)
same,GI50,[29],> 100 µM (inactive)
same,GI50,[30],> 100 µM (inactive)
same,GI50,[31],> 100 µM (inactive)
same,GI50,[32],> 100 µM (inactive)
same,GI50,[54],> 100 µM (inactive)
same,GI50,[33],> 100 µM (inactive)
same,GI50,[55],> 100 µM (inactive)
same,GI50,[35],> 100 µM (inactive)
same,GI50,[36],> 100 µM (inactive)
same,GI50,[56],> 100 µM (inactive)
same,GI50,[37],> 100 µM (inactive)
same,GI50,[57],> 100 µM (inactive)
same,GI50,[38],> 100 µM (inactive)
same,GI50,[39],> 100 µM (inactive)
same,GI50,[40],> 100 µM (inactive)
same,GI50,[58],> 100 µM (inactive)
same,GI50,[41],34.7 µM (inactive)
same,GI50,[42],> 100 µM (inactive)
